Consider six compounds from patent US10898548B2, “Modulators of protein tyrosine phosphatase and uses thereof” (LEUVAS THERAPEUTICS, priority 2015, dated 2021).

Marks after values point to notes of the source that are not given here.

The subject of one assay is human primary monocytes. The experiment in a line: static adhesion of fMLP-stimulated monocytes to fibrinogen. The class given is cell-based. The arrangement: fMLP-triggered static adhesion to fibrinogen: unit not given here. As to conditions: CTRL 100; for fMLP-triggered static adhesion to fibrinogen: monocytes; for fMLP-induced adhesion to fibrinogen: 40 μM P1 or P1-TKIP, 100 μM AG490, 200 μM WHI-P154, 1 hour, 50 nM fMLP 60 sec. The procedure: We investigated the functional effect of PTPRG activation on integrin activation and mediated adhesion by chemoattractants in human primary monocytes and PMNs in a static and flow adhesion assays. Briefly, human primary monocytes or polymorphonuclear cells were suspended at 5×10^6/ml in standard adhesion buffer. Adhesion assays were performed on 18-well glass slides coated with 1 mg/ml human fibrinogen or with 1 μg/ml human ICAM-1 in PBS; 20 μl of cell suspension were added to the coated wells and stimulated for 1 min at 37° C. with 5 μl of fMLP, 0.05 μM final concentration. After rapid washing, adherent cells were fixed in ice-cold 1.5% glutaraldehyde in PBS, and still images of adherent cells in 0.2 mm^2 fields were acquired al 20× phase contrast magnification, NA 0.40, with a charge-coupled device camera (ICD-42B; Ikegami) connected to an inverted microscope (IX50; Olympus). Image acquisition and computer-assisted enumeration of adherent cells were performed with ImageJ (National Institute of Health). […]
To evaluate whether JAK2 mediates chemoattractant-induced adhesion of human monocytes to beta-2 integrin substrates human monocytes were treated control buffer or P1 or with the three JAK inhibitors. Briefly, human monocytes were treated with buffer (CTRL=control), or 40 μM P1 or P1-TKIP peptides, 100 μM AG490 or 200 μM WHI-P154 for 1 hour at 37° C. and stimulated with 50 nM fMLP for 60 sec.; data are mean and standard deviation (SD) of 6 experiments in triplicate.

The next assay addresses T1, JAK2 (Homo sapiens, UniProt O60674).
T1 construct: endogenous in cells; host or cells: human primary monocytes
Put plainly: phospho-JAK2 Western Blot on monocytes. The class given is cell-based. The note with it: 50 nM fMLP 180 sec. An excerpt: JAK2 regulation by PTPRG as assessed through the high-throughput phospho-proteomics analysis evidenced that PTPRG activation (Example 4, Table 9 and 10) provides a useful example of the exploitation of this analysis system for identification of targets and unexpected indications/uses for known and novel agents that regulate the phoshoproteome. […] Furthermore, the capability of fMLP to trigger JAKs activation has never been observed. The results described in Example 4 unexpectedly implicate JAK2 de-phosphorylation by PTPRG as playing a role in the anti-adhesive role of PTPRG on monocytes. To test this system-generated hypothesis we first set out to define the role of JAK2 in fMLP-triggered rapid adhesion in monocytes. Time course experiments, either performed with ELISA assay or Western Blot. Briefly, purified human monocytes were treated with buffer (resting) or with 50 nM fMLP for the indicated times (Table 12), and the phosphorylation was assessed by p-Jak2 elisa and Western Blot analysis. The JAK2 activation was determined with Elisa Kit JAK2 (pYpY1007/1008) (Invitrogen). Briefly, cells were stimulated with agonist and lysed following manufacturer's protocol; levels of phospho-JAK2 were quantified (absorbance at 450 nm) with a micro-well plate reader (Victor™ X5 Multilabel Plate Reader, Perkin Elmer). For Western blot analysis, cells were lysed in ice-cold 1% Nonidet P-40 buffer, containing phosphatase inhibitors and complete protease inhibitor cocktail (Roche). Total cell lysates were quantified by Bradford assay (Bio-Rad). Equal amounts of total lysates or of isolated membranes (as described in Example 1) were subjected to 10% SDS-PAGE and then blotted. After incubation with anti-PTPRG, anti gp91^Phox, anti phospho-JAK2, anti JAK2 and HRP-linked secondary antibodies (GE Healthcare), immunoreactive bands were visualized by ECL detection (EMD Millipore). Intensities of band signals were quantified by densitometric analysis (Quantity One, Bio-Rad) by using ImageQuant Las4000. Data are mean value of three experiments; the relative ratio of the band intensity of phosphor-JAK2 was normalized to the level of JAK2 band intensities.
To evaluate whether JAK2 mediates fMLP-triggered rapid adhesion in human monocytes, we tested the capability of three JAK inhibitors, AG490, WHI-P154 and P1-TKIP peptide, to block adhesion triggering. Briefly, Monocytes were treated with buffer (resting and Control=CTRL), 100 μM AG490, 40 μM P1 or P1-TKIP peptides, or 200 μM WHI-P154 for 1 hour at 37° C. and stimulated with 50 nM fMLP for 180 sec. Cell lysates were probed with anti phospho-JAK2 and with anti JAK2. Western Blot immuoreactive band quantification; the relative ratio of the band intensity of phospho-JAK2 was normalized to the level of JAK2 band intensities; mean values of three experiments (Table 13).
The impact of TAT-ICD and P1-WD on JAK2 activation by chemoattractants was also evaluated by Western Blot analysis. Briefly, monocytes were treated with buffer (Resting, CTRL), 0.5 uM TAT-ICD, 50 μM TAT peptide, 50 μM P1-WD, P1 or P1-WD scrambled peptides for 1 hour at 37° C. and stimulated with 50 nM fMLP for 180 sec (the resting cells were not stimulated with fMLP). Total lysates were probed with anti phospho-JAK2 or with anti JAK. Western Blot immunoreactive bands were quantified and the relative ratio of the band intensity of phospho-JAK2 was normalized to the level of JAK2 band intensities; data are mean value and standard deviation of three experiments (Table 19).
For orientation: Immunoblotting shows a protein as a band on a membrane.

For a further assay, the system named is LFA-1. Put plainly: LFA-1 high affinity state detection with 327C mAb. The format is cell-based, human. As to conditions: CTRL 100; for LFA-1 high affinity state, percentages of fold-increase over control: 50 μM TAT peptides or 0.5 μM TAT-ICD, 1 hour, 50 nM fMLP 60 seconds; for LFA-1 high affinity state, percentages of fold increases over the control: 40 μM P1 or P1-TKIP, 100 μM AG490, 200 μM WHI-P154, 1 hour, 50 nM fMLP 60 sec; for LFA-1 high affinity state, mean fluorescence intensity relative to the fMLP-stimulated control: monocytes, 50 nM fMLP 1 min, concentration not given. As for the experimental part: The ability of P1-WD to inhibit triggering of LFA-1 to a high-affinity state was assessed using a specific reporter monoclonal antibody 327C, which detects the fully extended LFA-1 conformational epitope corresponding to heterodimer high affinity state. Briefly, freshly isolated human monocytes were suspended in standard adhesion buffer at 2×10^6/ml were stimulated under stirring at 37° C. for 1 min with 50 nM fMLP in the presence of 10 µg/ml 327C mAb. After rapid washing, the cells were stained with FITC-conjugated secondary antibody and analyzed by cytofluorimetric quantification (Table 4). Data are mean fluorescence intensity measured by flow cytometry relative to the fMLP-stimulated control (CTRL) cells.
The ability of TAT-ICD to trigger the high affinity state of LFA-1 was tested as described in Example 2, Table 4 and the results are in Table 8. Human monocytes were treated with buffer (CTRL), 50 μM TAT peptides, or 0.5 μM TAT-ICD for 1 hour at 37° C. and stimulated with 50 nM fMLP for 60 seconds. Data are the percentages of fold-increase over control; mean values of 6 experiments
Briefly, LFA-1 high affinity state detection. Human monocytes were treated with buffer (CTRL=control), 40 μM P1 or P1-TKIP peptides, 100 μM AG490 or 200 μM WHI-P154 for 1 hour at 37° C. and stimulated with 50 nM fMLP for 60 sec. LFA-1 high affinity state conformer was detected by cytofluorimetric analysis with 327C antibody. Shown are percentages of fold increases over the control; mean values of 5 experiments.

[1] abbreviates: 0.5 uM TAT-ICD, 50 μM TAT, 50 μM P1-WD, P1 or P1-WD scrambled, 1 hour, CTRL 50, Resting 8.
[2] abbreviates: 100 μM AG490, 40 μM P1 or P1-TKIP, 200 μM WHI-P154, 1 hour, CTRL 207.7, Resting 18.8.

T1 sequence (O60674 whole entry): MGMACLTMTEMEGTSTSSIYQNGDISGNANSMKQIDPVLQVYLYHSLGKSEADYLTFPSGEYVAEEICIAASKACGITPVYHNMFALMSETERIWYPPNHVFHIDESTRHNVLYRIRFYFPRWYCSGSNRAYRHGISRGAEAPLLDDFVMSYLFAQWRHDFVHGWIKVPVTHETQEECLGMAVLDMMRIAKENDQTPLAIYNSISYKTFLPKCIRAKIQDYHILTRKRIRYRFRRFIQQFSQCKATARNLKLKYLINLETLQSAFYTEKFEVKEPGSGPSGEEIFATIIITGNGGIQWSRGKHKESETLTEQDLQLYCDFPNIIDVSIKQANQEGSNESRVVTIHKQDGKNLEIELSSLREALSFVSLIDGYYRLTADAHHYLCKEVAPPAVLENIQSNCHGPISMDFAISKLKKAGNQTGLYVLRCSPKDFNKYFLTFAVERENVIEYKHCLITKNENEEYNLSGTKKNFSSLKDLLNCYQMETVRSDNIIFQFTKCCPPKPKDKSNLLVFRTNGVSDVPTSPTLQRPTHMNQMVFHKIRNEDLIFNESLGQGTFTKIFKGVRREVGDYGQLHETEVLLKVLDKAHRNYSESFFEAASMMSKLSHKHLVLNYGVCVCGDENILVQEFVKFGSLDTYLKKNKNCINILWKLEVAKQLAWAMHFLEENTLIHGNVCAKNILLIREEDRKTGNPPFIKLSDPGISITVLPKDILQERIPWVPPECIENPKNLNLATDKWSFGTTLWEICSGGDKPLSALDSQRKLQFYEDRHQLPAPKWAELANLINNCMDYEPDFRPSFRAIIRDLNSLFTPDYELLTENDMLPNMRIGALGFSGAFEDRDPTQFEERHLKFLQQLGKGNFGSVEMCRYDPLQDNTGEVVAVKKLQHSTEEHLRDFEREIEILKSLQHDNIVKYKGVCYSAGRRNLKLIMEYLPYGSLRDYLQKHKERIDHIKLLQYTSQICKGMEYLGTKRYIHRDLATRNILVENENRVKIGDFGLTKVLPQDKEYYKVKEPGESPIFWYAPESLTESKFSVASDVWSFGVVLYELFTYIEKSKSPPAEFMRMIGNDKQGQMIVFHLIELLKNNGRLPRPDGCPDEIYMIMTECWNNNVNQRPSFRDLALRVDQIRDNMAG

For the compound “TAT-ICD: fusion recombinant protein SEQ ID 5: PTPRG intracellular domain aa 797-1445 fused to 13 aa TAT sequence”, the “fMLP-triggered static adhesion to fibrinogen” value (“fMLP-triggered static adhesion” for short) stood at 45.4 in the assay on human primary monocytes (0.01 μM); 35.5 with human primary monocytes (0.05 μM); 27.9 with human primary monocytes (0.10 μM); 20.1 with human primary monocytes (0.5 μM); 14.0 with human primary monocytes (1 μM). Also, in the assay with JAK2 (setting [1]), the “phospho-JAK2 band intensity normalized to JAK2, Western Blot” value (“phospho-JAK2 band intensity normalized” below) is recorded as 15*. For the same compound, the “LFA-1 high affinity state, percentages of fold-increase over control” value with LFA-1 is reported as 24.3%.
For `COc1cc2ncnc(Nc3ccc(O)c(Br)c3)c2cc1OC` [WHI-P154], the fMLP-induced adhesion to fibrinogen in the assay on human primary monocytes is 18%. Moreover, the “phospho-JAK2 band intensity normalized” value on JAK2 (setting [2]) turned out to be 4.9. Besides, the “LFA-1 high affinity state, percentages of fold increases over the control” value in the assay with LFA-1 is on record as 58%.
For “P1: Penetratin delivery peptide, 16 aa RQIKIWFQNRRMKWKK (SEQ ID 4), control [reference compound]”, the fMLP-induced adhesion to fibrinogen in the assay with human primary monocytes came to 110%. Moreover, the “fMLP-triggered static adhesion” value in the assay with human primary monocytes (control peptide, concentration not given) turned out to be 94. In addition, the “phospho-JAK2 band intensity normalized” value in the assay with JAK2 (setting [1]) came to 49. For the same compound, the “phospho-JAK2 band intensity normalized” value in the assay with JAK2 (setting [2]) was 111.4. In the assay with LFA-1, the “LFA-1 high affinity state, percentages of fold increases over the control” value came out at 90% and the “LFA-1 high affinity state, mean fluorescence intensity relative to the fMLP-stimulated control” value is reported as 91.
Consider “TAT (GRKKRRQRRRPPQ; listed as Homo sapiens) [reference compound]”, for which the figures for the “fMLP-triggered static adhesion” value in the assay on human primary monocytes (0.5 μM) and with human primary monocytes (1 μM) were 100 and 98, respectively. In the assay with JAK2 (setting [1]), the “phospho-JAK2 band intensity normalized” value was 40. In the assay on LFA-1, the “LFA-1 high affinity state, percentages of fold-increase over control” value came to 85.3%.
As for `N#C/C(=C/c1ccc(O)c(O)c1)C(=O)NCc1ccccc1` [AG490], the fMLP-induced adhesion to fibrinogen in the assay with human primary monocytes came to 32.8%. Also, the “phospho-JAK2 band intensity normalized” value at JAK2 (setting [2]) stood at 9.2. In addition, in the assay on LFA-1, the “LFA-1 high affinity state, percentages of fold increases over the control” value came to 66%.
For “P1-WD: fusion Trojan peptide SEQ ID 3: Penetratin, glycine, PTPRG wedge domain aa 831-856; RQIKIWFQNRRMKWKKGKQFVKHIGELYSNNQHGFSEDFEEVQ (listed as Homo sapiens)”, the results for the “fMLP-triggered static adhesion” value in the assay on human primary monocytes (P1-WD 10 micromolar), with human primary monocytes (P1-WD 25 micromolar) and with human primary monocytes (P1-WD 50 micromolar) were 41, 18 and 16, respectively. The “phospho-JAK2 band intensity normalized” value in the assay with JAK2 (setting [1]) was 12*. In the assay on LFA-1, the “LFA-1 high affinity state, mean fluorescence intensity relative to the fMLP-stimulated control” value worked out at 22.
